# Assays:
# Test in all cases: relative viability (nuclei count vs DMSO), 5 days (fraction); higher = more cells survive
# H3255 = test system: H3255
# In short: (§1)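 Lung cancer cell lines were pin-tool dosed in 1536-well plates on the day after seeding, with either a lone drug or a fixed anchor-drug dose plus five library-drug doses (not always all listed) in √10 steps. Nuclei were counted on 4× images after 5 days. Relative viability is the ratio of treated-well to vehicle-well nuclei counts, with each value a median of duplicate plates.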
# HARA = test system: HARA
# In short: as §1
# NCI-H460 = test system: NCI-H460
# In short: as §1
# NCI-H358 = test system: NCI-H358
# In short: as §1
# 201T = test system: 201T
# In short: as §1
# SK-LU-1 = test system: SK-LU-1
# In short: as §1
# NCI-H3122 = test system: NCI-H3122
# In short: as §1
# NCI-H2087 = test system: NCI-H2087
# In short: as §1
# NCI-H596 = test system: NCI-H596
# In short: as §1
# NCI-H322M = test system: NCI-H322M
# In short: as §1
# NCI-H1755 = test system: NCI-H1755
# In short: as §1
smiles,measurement,setting,value
Cc1csc(=NC2CCCCC2)n1/N=C/c1ccc(O)c(O)c1O [MIM1] + C[C@@H](Oc1cc(-c2cnn(C3CCNCC3)c2)cnc1N)c1c(Cl)ccc(F)c1Cl [Crizotinib] (partner 1 µM),relative viability,H3255; first compound 6.325 µM,0.629
same,relative viability,H3255; first compound 20 µM,0.435
same,relative viability,HARA; first compound 0.2 µM,1.06
same,relative viability,HARA; first compound 0.6325 µM,1.13
same,relative viability,HARA; first compound 2 µM,1.08
same,relative viability,HARA; first compound 6.325 µM,0.997
same,relative viability,HARA; first compound 20 µM,0.138
same,relative viability,NCI-H460; first compound 0.2 µM,0.853
same,relative viability,NCI-H460; first compound 0.6325 µM,0.994
same,relative viability,NCI-H460; first compound 2 µM,0.374
same,relative viability,NCI-H460; first compound 6.325 µM,0.205
same,relative viability,NCI-H460; first compound 20 µM,0.031
same,relative viability,NCI-H358; first compound 0.2 µM,0.572
same,relative viability,NCI-H358; first compound 0.6325 µM,0.459
same,relative viability,NCI-H358; first compound 2 µM,0.545
same,relative viability,NCI-H358; first compound 6.325 µM,0.225
same,relative viability,NCI-H358; first compound 20 µM,0.295
same,relative viability,201T; first compound 0.2 µM,1.01
same,relative viability,201T; first compound 0.6325 µM,1.04
same,relative viability,201T; first compound 2 µM,1.04
same,relative viability,201T; first compound 6.325 µM,0.81
same,relative viability,201T; first compound 20 µM,0.823
same,relative viability,SK-LU-1; first compound 0.2 µM,1.02
same,relative viability,SK-LU-1; first compound 0.6325 µM,0.895
same,relative viability,SK-LU-1; first compound 2 µM,1.07
same,relative viability,SK-LU-1; first compound 6.325 µM,0.815
same,relative viability,SK-LU-1; first compound 20 µM,0.843
same,relative viability,NCI-H3122; first compound 0.2 µM,0.272
same,relative viability,NCI-H3122; first compound 0.6325 µM,0.251
same,relative viability,NCI-H3122; first compound 2 µM,0.32
same,relative viability,NCI-H3122; first compound 6.325 µM,0.294
same,relative viability,NCI-H3122; first compound 20 µM,0.204
same,relative viability,NCI-H2087; first compound 0.2 µM,0.772
same,relative viability,NCI-H2087; first compound 0.6325 µM,0.934
same,relative viability,NCI-H2087; first compound 2 µM,0.838
same,relative viability,NCI-H2087; first compound 6.325 µM,0.739
same,relative viability,NCI-H2087; first compound 20 µM,0.766
same,relative viability,NCI-H596; first compound 0.2 µM,0.965
same,relative viability,NCI-H596; first compound 0.6325 µM,1.11
same,relative viability,NCI-H596; first compound 2 µM,0.832
same,relative viability,NCI-H596; first compound 6.325 µM,0.921
same,relative viability,NCI-H596; first compound 20 µM,0.741
same,relative viability,NCI-H322M; first compound 0.2 µM,0.831
same,relative viability,NCI-H322M; first compound 0.6325 µM,1.02
same,relative viability,NCI-H322M; first compound 2 µM,0.762
same,relative viability,NCI-H322M; first compound 6.325 µM,0.808
same,relative viability,NCI-H322M; first compound 20 µM,0.71
same,relative viability,NCI-H1755; first compound 0.2 µM,0.861
same,relative viability,NCI-H1755; first compound 0.6325 µM,0.794
same,relative viability,NCI-H1755; first compound 2 µM,0.803
same,relative viability,NCI-H1755; first compound 6.325 µM,0.68
same,relative viability,NCI-H1755; first compound 20 µM,0.179

# Source: the supplement of paper PMC10307832
